Results on 27 compounds are retold here after paper PMC8342319, “Predicting blood-to-plasma concentration ratios of drugs from chemical structures and volumes of distribution in humans” (Molecular Diversity, 2021).

Read-outs that look alike come from different tables or passages of the source.

For data set [1] the following is noted: human; mean if multiple values reported; ref numbers in Table S2 (supplement reference list); cited from earlier work.
For data set [2] the following is noted: human.
The next data set concerns plasma protein. The following applies: cited from earlier work; for fp_Human (free fraction in plasma): human.
For data set [3] the following is noted: human, cited from earlier work.
For data set [4] the following is noted: cited from earlier work.
Setting [5] is: collected value, median if multiple values were reported, ref: Table S1.
The mark [6] stands for this setting: intravenous, median if multiple values were reported, ref numbers in Table S1.
[7] abbreviates: human plasma free fraction, median if multiple values were reported, ref numbers in Table S1.
The mark [8] stands for this setting: human, intravenous, median if multiple values were reported, ref numbers in Table S1.
[9] abbreviates: human, intravenous, median if multiple values reported, Reference of Table S1.
The mark [10] stands for this setting: intravenous, median if multiple values reported, Reference of Table S1.

Consider `COc1cc2nc(N(C)CCCNC(=O)C3CCCO3)nc(N)c2cc1OC` (centres unmarked) [Alfuzosin, reference compound], for which the “Rb_Human (blood-to-plasma concentration ratio)” value in data set [1] is recorded as 0.82.
As for `CC[C@H]1OC(=O)[C@H](C)[C@@H](O[C@H]2C[C@@](C)(OC)[C@@H](O)[C@H](C)O2)[C@H](C)[C@@H](O[C@@H]2O[C@H](C)C[C@H](N(C)C)[C@H]2O)[C@](C)(OC)C[C@@H](C)C(=O)[C@H](C)[C@@H](O)[C@]1(C)O` [Clarithromycin, reference compound], the “Rb_Human (blood-to-plasma concentration ratio)” value in data set [1] was 0.64.
Consider `Nc1ccc(S(=O)(=O)c2ccc(N)cc2)cc1` [Dapsone], for which the “in vivo MRT_(hr)_Human” value in data set [2] worked out at 28.819 h. In the data set with plasma protein (setting [5]), the “fp_Human (free fraction in plasma)” value is 0.315. The “in vivo Vd_(L/kg)_Human” value in data set [3] (setting [6]) is on record as 0.830 L/kg.
Regarding `CNC(C)C1CCC(N)C(OC2C(N)CC(N)C(OC3OCC(C)(O)C(NC)C3O)C2O)O1` (centres unmarked) [Gentamicin], in data set [2], the “in vivo MRT_(hr)_Human” value stood at 5.500 h. The “fp_Human (free fraction in plasma)” value in the data set on plasma protein (plasma) was 1.000.
For the compound `COc1ccc(Cl)cc1C(=O)NCCc1ccc(S(=O)(=O)NC(=O)NC2CCCCC2)cc1` [Glyburide], the “in vivo MRT_(hr)_Human” value in data set [2] stood at 1.626 h. For the same compound, the “fp_Human (free fraction in plasma)” value with plasma protein (setting [5]) is 0.021. Moreover, the “in vivo Vd_(L/kg)_Human” value in data set [3] (setting [6]) is 0.080 L/kg.
As to `O=C(CCCN1CCC(O)(c2ccc(Cl)cc2)CC1)c1ccc(F)cc1` [Haloperidol], in data set [2], the “in vivo MRT_(hr)_Human” value is 37.393 h. In the data set with plasma protein (setting [7]), the fp_Human is recorded as 0.100. In the data set with plasma protein (setting [5]), the “fp_Human (free fraction in plasma)” value is 0.100. In data set [3] (setting [6]), the “in vivo Vd_(L/kg)_Human” value is reported as 17.500 L/kg.
Consider `NNc1nncc2ccccc12` [Hydralazine], for which the “in vivo MRT_(hr)_Human” value in data set [2] was 0.294 h. Besides, the “fp_Human (free fraction in plasma)” value in the data set on plasma protein (setting [5]) is given as 0.120. The “in vivo Vd_(L/kg)_Human” value in data set [3] (setting [6]) was 1.500 L/kg. The “in vivo CL_(L/hr/kg)_Human” value in data set [4] (setting [8]) is 5.100 L/h/kg.
Consider `CNC1(c2ccccc2Cl)CCCCC1=O` (centres unmarked) [Ketamine], for which the “in vivo MRT_(hr)_Human” value in data set [2] is 2.544 h. The “fp_Human (free fraction in plasma)” value in the data set on plasma protein (setting [5]) is given as 0.770. Moreover, the “in vivo Vd_(L/kg)_Human” value in data set [3] (in vivo, iv) is listed as 2.900 L/kg.
As for `CC(=O)NC[C@H]1CN(c2ccc(N3CCOCC3)c(F)c2)C(=O)O1` [Linezolid], in data set [2], the “in vivo MRT_(hr)_Human” value was 5.370 h. Moreover, the fp_Human with plasma protein (setting [7]) is recorded as 0.690. The “in vivo Vd_(L/kg)_Human” value in data set [3] (setting [6]) is listed as 0.580 L/kg. The “in vivo CL_(L/hr/kg)_Human” value in data set [4] (setting [8]) was 0.117 L/h/kg.
Turning to `CN(C)C(=N)N=C(N)N` [Metformin], in data set [2], the “in vivo MRT_(hr)_Human” value was found to be 1.441 h. Besides, the fp_Human in the data set on plasma protein (setting [7]) is 1.000. The “in vivo Vd_(L/kg)_Human” value in data set [3] (setting [6]) was 0.640 L/kg. Besides, the “in vivo CL_(L/hr/kg)_Human” value in data set [4] (setting [8]) was 0.444 L/h/kg.
In the case of `O=C1CN(/N=C/c2ccc([N+](=O)[O-])o2)C(=O)N1` [Nitrofurantoin], the “in vivo MRT_(hr)_Human” value in data set [2] was found to be 0.979 h. The “fp_Human (free fraction in plasma)” value in the data set on plasma protein (setting [5]) is given as 0.380. Further, the “in vivo Vd_(L/kg)_Human” value in data set [3] (setting [6]) was 0.570 L/kg.
With `CC1COc2c(N3CCN(C)CC3)c(F)cc3c(=O)c(C(=O)O)cn1c23` (centres unmarked) [Ofloxacin], the “in vivo MRT_(hr)_Human” value in data set [2] was 10.667 h. Moreover, the “in vivo Vd_(L/kg)_Human” value in data set [3] (setting [6]) was 1.600 L/kg. Also, the “in vivo CL_(L/hr/kg)_Human” value in data set [4] (setting [8]) is 0.150 L/h/kg.
As for `Cc1nccn1CC1CCc2c(c3ccccc3n2C)C1=O` (centres unmarked) [Ondansetron], the “in vivo MRT_(hr)_Human” value in data set [2] is 5.172 h. Moreover, the “in vivo Vd_(L/kg)_Human” value in data set [3] (setting [6]) is reported as 1.800 L/kg. Moreover, in data set [4] (setting [8]), the “in vivo CL_(L/hr/kg)_Human” value was 0.354 L/h/kg.
Regarding `CC(=O)O[C@H]1C[C@@H]2CC[C@@H]3[C@H](CC[C@@]4(C)[C@H]3C[C@H]([N+]3(C)CCCCC3)[C@@H]4OC(C)=O)[C@@]2(C)C[C@@H]1[N+]1(C)CCCCC1` [Pancuronium], the “in vivo MRT_(hr)_Human” value in data set [2] worked out at 2.222 h. Moreover, the “fp_Human (free fraction in plasma)” value in the data set with plasma protein (setting [5]) is reported as 0.090. Further, the “in vivo Vd_(L/kg)_Human” value in data set [3] (in vivo, iv) is reported as 0.200 L/kg.
Consider `CCC1(c2ccccc2)C(=O)NC(=O)NC1=O` [Phenobarbital], for which the “in vivo MRT_(hr)_Human” value in data set [2] was 150.000 h. In the data set with plasma protein, the fp_Human is recorded as 0.505. Further, the “in vivo Vd_(L/kg)_Human” value in data set [3] (in vivo, iv) is 0.540 L/kg. For the same compound, the “in vivo CL_(L/hr/kg)_Human” value in data set [4] (setting [9]) is 0.0036 L/h/kg.
For `CC(C)c1cccc(C(C)C)c1O` [Propofol], in data set [2], the “in vivo MRT_(hr)_Human” value was 2.176 h. Further, the fp_Human with plasma protein is 0.020. Besides, the “in vivo Vd_(L/kg)_Human” value in data set [3] (in vivo, iv) is on record as 4.700 L/kg. In data set [4] (in vivo, iv), the “in vivo CL_(L/hr/kg)_Human” value was 2.160 L/h/kg.
Consider `CCN1CCC[C@H]1CNC(=O)c1c(OC)ccc(Br)c1OC` [Remoxipride], for which the “in vivo MRT_(hr)_Human” value in data set [2] is 6.373 h. Besides, the “in vivo Vd_(L/kg)_Human” value in data set [3] (setting [10]) is recorded as 0.650 L/kg. Further, the “in vivo CL_(L/hr/kg)_Human” value in data set [4] (setting [9]) is 0.102 L/h/kg.
In the case of `O=C(O)CCCCO/N=C(/c1cccnc1)c1cccc(C(F)(F)F)c1` [Ridogrel], the “in vivo MRT_(hr)_Human” value in data set [2] is 6.825 h. For the same compound, the “in vivo Vd_(L/kg)_Human” value in data set [3] (setting [10]) was 0.430 L/kg. Moreover, the “in vivo CL_(L/hr/kg)_Human” value in data set [4] (setting [9]) is 0.063 L/h/kg.
In the case of `CCN(C)C(=O)Oc1cccc([C@H](C)N(C)C)c1` [Rivastigmine], the “in vivo MRT_(hr)_Human” value in data set [2] came to 1.806 h. Further, in the data set with plasma protein, the fp_Human is recorded as 0.600. Besides, in data set [3] (in vivo, iv), the “in vivo Vd_(L/kg)_Human” value is listed as 1.300 L/kg. Further, in data set [4] (setting [9]), the “in vivo CL_(L/hr/kg)_Human” value was 0.720 L/h/kg.
In the case of `CCN(CC)CCNC(=O)c1ccc(NS(C)(=O)=O)cc1` [Sematilide], the “in vivo MRT_(hr)_Human” value in data set [2] worked out at 3.694 h. Further, the “in vivo Vd_(L/kg)_Human” value in data set [3] (setting [10]) is on record as 0.820 L/kg. Besides, the “in vivo CL_(L/hr/kg)_Human” value in data set [4] (setting [9]) is 0.222 L/h/kg.
On to `CCCCCc1cc(O)c2c(c1)OC(C)(C)[C@@H]1CCC(C)=C[C@@H]21` [Tetrahydrocannabinol], for which, in data set [2], the “in vivo MRT_(hr)_Human” value worked out at 46.354 h. For the same compound, the fp_Human in the data set with plasma protein was 0.085. Also, the “in vivo Vd_(L/kg)_Human” value in data set [3] (in vivo, iv) is reported as 8.900 L/kg. For the same compound, in data set [4] (setting [9]), the “in vivo CL_(L/hr/kg)_Human” value is 0.192 L/h/kg.
Consider `CCCC(C)C1(CC)C(=O)NC(=S)NC1=O` (centres unmarked) [Thiopental], for which the “in vivo MRT_(hr)_Human” value in data set [2] is 2.439 h. Also, in the data set on plasma protein, the fp_Human was 0.140. Also, the “in vivo Vd_(L/kg)_Human” value in data set [3] (in vivo, iv) is given as 1.200 L/kg. Besides, the “in vivo CL_(L/hr/kg)_Human” value in data set [4] (in vivo, iv) was 0.363 L/h/kg.
Take `COc1cccc(C2(O)CCCCC2CN(C)C)c1` (centres unmarked) [Tramadol]: the “in vivo MRT_(hr)_Human” value in data set [2] came out at 7.179 h. Moreover, in the data set on plasma protein, the fp_Human is recorded as 0.800. Moreover, the “in vivo Vd_(L/kg)_Human” value in data set [3] (in vivo, iv) is listed as 2.800 L/kg. In addition, in data set [4] (setting [9]), the “in vivo CL_(L/hr/kg)_Human” value is 0.390 L/h/kg.
Consider `Cc1nnc2n1-c1ccc(Cl)cc1C(c1ccccc1Cl)=NC2` [Triazolam], for which the “in vivo MRT_(hr)_Human” value in data set [2] came out at 3.222 h. Also, in the data set on plasma protein, the fp_Human is 0.100. In addition, the “in vivo Vd_(L/kg)_Human” value in data set [3] (in vivo, iv) is given as 0.580 L/kg.
Regarding `CCCCC(=O)N(Cc1ccc(-c2ccccc2-c2nnn[nH]2)cc1)[C@H](C(=O)O)C(C)C` [Valsartan], the “in vivo MRT_(hr)_Human” value in data set [2] was determined as 7.483 h. In the data set on plasma protein, the fp_Human is on record as 0.040. The “in vivo Vd_(L/kg)_Human” value in data set [3] (setting [10]) is given as 0.220 L/kg. The “in vivo CL_(L/hr/kg)_Human” value in data set [4] (setting [9]) is 0.029 L/h/kg.
For `CC(=O)O[C@H]1C[C@@H]2CC[C@@H]3[C@H](CC[C@@]4(C)[C@H]3C[C@H]([N+]3(C)CCCCC3)[C@@H]4OC(C)=O)[C@@]2(C)C[C@@H]1N1CCCCC1` [Vecuronium Bromide], the “in vivo MRT_(hr)_Human” value in data set [2] is 1.111 h. Moreover, in the data set on plasma protein, the fp_Human was 0.250. Also, the “in vivo Vd_(L/kg)_Human” value in data set [3] (in vivo, iv) is listed as 0.300 L/kg. Also, in data set [4] (setting [9]), the “in vivo CL_(L/hr/kg)_Human” value is 0.327 L/h/kg.
For `Cc1ccc(-c2nc3ccc(C)cn3c2CC(=O)N(C)C)cc1` [Zolpidem], the “in vivo MRT_(hr)_Human” value in data set [2] worked out at 2.093 h. Further, the fp_Human in the data set with plasma protein is reported as 0.060. Also, in data set [3] (in vivo, iv), the “in vivo Vd_(L/kg)_Human” value is 0.540 L/kg. The “in vivo CL_(L/hr/kg)_Human” value in data set [4] (setting [9]) is 0.258 L/h/kg.
